Results reported in patent US20150274664A1 (MERCK SHARP & DOHME CORP., priority 2012, published 2015).

Target: T1, human GPR119 (Homo sapiens, UniProt Q8TDV5)
T1 construct: expressed in transfected cells; host or cells: HEK293
T1 sequence (Q8TDV5 1-335): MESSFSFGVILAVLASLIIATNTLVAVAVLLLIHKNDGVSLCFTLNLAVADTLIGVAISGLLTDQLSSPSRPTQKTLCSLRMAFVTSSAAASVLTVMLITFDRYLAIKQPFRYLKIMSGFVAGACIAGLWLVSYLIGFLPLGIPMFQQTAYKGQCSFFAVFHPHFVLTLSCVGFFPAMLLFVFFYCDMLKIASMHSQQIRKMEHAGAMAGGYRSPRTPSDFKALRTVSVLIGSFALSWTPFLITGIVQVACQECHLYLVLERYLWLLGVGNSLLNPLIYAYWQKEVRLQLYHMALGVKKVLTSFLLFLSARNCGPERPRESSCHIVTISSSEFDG
Assay: Measurement of GPR119 signaling using LANCE 384-well cAMP kit (LCMP assay)
Assay type: cell-based
Conditions: HEK293 cells stably transfected with human GPR119
Method: Measurement of GPR119 Signaling Using LANCE 384-Well cAMP Kit (LCMP Assay)
Human embryonic kidney (HEK) 293 cell lines stably transfected with human GPR119 were maintained in DMEM media containing FBS, penicillin-streptomycin, HEPES, and hygromycin. For the cAMP assay, the transfected cells were harvested using a non-enzymatic cell dissociation solution (GIBCO 2672), pelleted and resuspended in stimulation buffer (DMEM, 25 mM Hepes, 0.1% BSA, pH 7.4 in the presence of 100 μM phosphodiesterase inhibitors). The adenylate cyclase assay was constructed following the LANCE™ cAMP Kit (Perkin Elmer, AD0264) instructions. Briefly, cells with Alexa Fluor® 647-anti cAMP antibody were incubated with 10 point series diluted test article in stimulation buffer with a final concentration of 2.5% DMSO for 45 minutes. The reaction was stopped by incubating with the supplied detection buffer containing the europium chelate of the Eu-SA/Biotin-cAMP tracer for 3 hours. The assay was performed in duplicate in a 384 well plate for duplicate plates. Fluorescence at 665 nm was measured using a PHERAstar instrument. Basal activity was determined using a DMSO control and maximum response was defined as cAMP stimulation produced by an internal agonist control. Standard cAMP concentrations were assayed concurrently for conversion of fluorescence signal to cAMP level. The data was analyzed using 4-parameter curve fit in Microsoft Excel.

SMILES	EC50 [nM]
COCc1cnc(N2CCC([C@@H]3C[C@H]3CCOc3ccc(CC(=O)N(C)C)c(F)c3)CC2)nc1 [Example 52, 2-(2-fluoro-4-(2-((1S,2S)-2-(1-(5-(methoxymethyl)pyrimidin-2-yl)piperidin-4-yl)cyclopropyl)ethoxy)phenyl)-N,N-dimethylacetamide]	9.6
COCc1cnc(N2CCC([C@H]3C[C@@H]3CCOc3ccc(CC(=O)N(C)C)c(F)c3)CC2)nc1 [Example 53, 2-(2-fluoro-4-(2-((1R,2R)-2-(1-(5-(methoxymethyl)pyrimidin-2-yl)piperidin-4-yl)cyclopropyl)ethoxy)phenyl)-N,N-dimethylacetamide]	5.9
CCc1cnc(N2CCC([C@H]3C[C@@H]3CCOc3cc(F)c(CC(=O)N4CCC4)c(F)c3)CC2)nc1 [Example 54, 1-(azetidin-1-yl)-2-(4-(2-((1R,2R)-2-(1-(5-ethylpyrimidin-2-yl)piperidin-4-yl)cyclopropyl)ethoxy)-2,6-difluorophenyl)ethanone]	0.25
CCc1cnc(N2CCC([C@H]3C[C@@H]3CCOc3cc(F)c(CC(=O)N(C)C)c(F)c3)CC2)nc1 [Example 55, 2-(4-(2-((1R,2R)-2-(1-(5-ethylpyrimidin-2-yl)piperidin-4-yl)cyclopropyl)ethoxy)-2,6-difluorophenyl)-N,N-dimethylacetamide]	0.34
COCc1cnc(N2CCC([C@H]3C[C@@H]3CCOc3cc(F)c(CC(=O)N4CCC4)c(F)c3)CC2)nc1 [Example 56, 1-(azetidin-1-yl)-2-(2,6-difluoro-4-(2-((1R,2R)-2-(1-(5-(methoxymethyl)pyrimidin-2-yl)piperidin-4-yl)cyclopropyl)ethoxy)phenyl)ethanone]	0.4
COCc1cnc(N2CCC([C@H]3C[C@@H]3CCOc3cc(F)c(CC(=O)N(C)C)c(F)c3)CC2)nc1 [Example 57, 2-(2,6-difluoro-4-(2-((1R,2R)-2-(1-(5-(methoxymethyl)pyrimidin-2-yl)piperidin-4-yl)cyclopropyl)ethoxy)phenyl)-N,N-dimethylacetamide]	0.63
Fc1cc(-n2cnnn2)ccc1OCC[C@H]1C[C@@H]1C1CCN(c2ncc(Cl)cn2)CC1 [Example 58, 5-chloro-2-(4-((1R,2R)-2-(2-(2-fluoro-4-(1H-tetrazol-1-yl)phenoxy)ethyl)cyclopropyl)piperidin-1-yl)pyrimidine]	11
Fc1cc(OCC[C@@H]2C[C@H]2C2CCN(c3ncc(Cl)cn3)CC2)ccc1-n1cnnn1 [Example 59, 5-chloro-2-(4-((1S,2S)-2-(2-(3-fluoro-4-(1H-tetrazol-1-yl)phenoxy)ethyl)cyclopropyl)piperidin-1-yl)pyrimidine]	13
CCc1cnc(N2CCC([C@H]3C[C@@H]3CCOc3ccc(-n4cnnn4)cc3F)CC2)nc1 [Example 60, 5-ethyl-2-(4-((1R,2R)-2-(2-(2-fluoro-4-(1H-tetrazol-1-yl)phenoxy)ethyl)cyclopropyl)piperidin-1-yl)pyrimidine]	17
O=C1NCCN1c1ccc(OCC[C@H]2C[C@@H]2C2CCN(c3ncc(Cl)cn3)CC2)cc1F [Example 61, 1-(4-(2-((1R,2R)-2-(1-(5-chloropyrimidin-2-yl)piperidin-4-yl)cyclopropyl)ethoxy)-2-fluorophenyl)imidazolidin-2-one]	17
CCc1cnc(N2CCC([C@@H]3C[C@H]3CCOc3ccc(CC(=O)N4CCC4)cc3F)CC2)nc1 [Example 62, 1-(azetidin-1-yl)-2-(4-(2-((1S,2S)-2-(1-(5-ethylpyrimidin-2-yl)piperidin-4-yl)cyclopropyl)ethoxy)-3-fluorophenyl)ethanone]	11
COCc1cnc(N2CCC([C@H]3C[C@@H]3CCOc3ccc(CC(=O)N4CCC4)cc3F)CC2)nc1 [Example 63, 1-(azetidin-1-yl)-2-(3-fluoro-4-(2-((1R,2R)-2-(1-(5-(methoxymethyl)pyrimidin-2-yl)piperidin-4-yl)cyclopropyl)ethoxy)phenyl)ethanone]	15
CC(C)c1noc(N2CCC([C@@H]3C[C@H]3CCOc3ccc(S(C)(=O)=O)c(F)c3)CC2)n1 [Example 65, 5-(4-((1S,2S)-2-(2-(3-fluoro-4-(methylsulfonyl)phenoxy)ethyl)cyclopropyl)piperidin-1-yl)-3-isopropyl-1,2,4-oxadiazole]	7.7
CC(C)c1noc(N2CCC([C@@H]3C[C@H]3CCOc3ccc(S(C)(=O)=O)cc3F)CC2)n1 [Example 66, 5-(4-((1S,2S)-2-(2-(2-fluoro-4-(methylsulfonyl)phenoxy)ethyl)cyclopropyl)piperidin-1-yl)-3-isopropyl-1,2,4-oxadiazole]	3.5
CC(C)c1noc(N2CCC([C@@H]3C[C@H]3CCOc3ccc(-n4cnnn4)cc3F)CC2)n1 [Example 67, 5-(4-((1S,2S)-2-(2-(2-fluoro-4-(1H-tetrazol-1-yl)phenoxy)ethyl)cyclopropyl)piperidin-1-yl)-3-isopropyl-1,2,4-oxadiazole]	6.2
CC(C)c1noc(N2CCC([C@H]3C[C@@H]3CCOc3ccc(-n4cnnn4)cc3F)CC2)n1 [Example 68, 5-(4-((1R,2R)-2-(2-(2-fluoro-4-(1H-tetrazol-1-yl)phenoxy)ethyl)cyclopropyl)piperidin-1-yl)-3-isopropyl-1,2,4-oxadiazole]	3.5
CC(C)c1noc(N2CCC([C@@H]3C[C@H]3CCOc3ccc(CC(=O)N4CCC4)c(F)c3)CC2)n1 [Example 69, 1-(azetidin-1-yl)-2-(2-fluoro-4-(2-((1S,2S)-2-(1-(3-isopropyl-1,2,4-oxadiazol-5-yl)piperidin-4-yl)cyclopropyl)ethoxy)phenyl)ethanone]	2.2
CC(C)c1noc(N2CCC([C@@H]3C[C@H]3CCOc3ccc(CC(=O)N4CCC4)cc3F)CC2)n1 [Example 70, 1-(azetidin-1-yl)-2-(3-fluoro-4-(2-((1S,2S)-2-(1-(3-isopropyl-1,2,4-oxadiazol-5-yl)piperidin-4-yl)cyclopropyl)ethoxy)phenyl)ethanone]	6.8
CCS(=O)(=O)c1ccc(OCC[C@@H]2C[C@H]2C2CCN(c3nc(C(C)C)no3)CC2)c(F)c1 [Example 71, 5-(4-((1S,2S)-2-(2-(4-(ethylsulfonyl)-2-fluorophenoxy)ethyl)cyclopropyl)piperidin-1-yl)-3-isopropyl-1,2,4-oxadiazole]	3.8
CC(C)c1noc(N2CCC([C@H]3C[C@@H]3CCOc3ccc(CC(=O)N4CCC4)c(F)c3)CC2)n1 [Example 72, 1-(azetidin-1-yl)-2-(2-fluoro-4-(2-((1R,2R)-2-(1-(3-isopropyl-1,2,4-oxadiazol-5-yl)piperidin-4-yl)cyclopropyl)ethoxy)phenyl)ethanone]	2.6
COCc1noc(N2CCC([C@H]3C[C@@H]3CCOc3ccc(CC(=O)N4CCC4)c(F)c3)CC2)n1 [Example 73, 1-(azetidin-1-yl)-2-(2-fluoro-4-(2-((1R,2R)-2-(1-(3-(methoxymethyl)-1,2,4-oxadiazol-5-yl)piperidin-4-yl)cyclopropyl)ethoxy)phenyl)ethanone]	6.4
CC(C)c1noc(N2CCC([C@H]3C[C@@H]3CCOc3ccc(CC(=O)N4CCC4)cc3F)CC2)n1 [Example 74, 1-(azetidin-1-yl)-2-(3-fluoro-4-(2-((1R,2R)-2-(1-(3-isopropyl-1,2,4-oxadiazol-5-yl)piperidin-4-yl)cyclopropyl)ethoxy)phenyl)ethanone]	9.5
CC(C)c1noc(N2CCC([C@H]3C[C@@H]3CCOc3ccc(CC(=O)N(C)C)c(F)c3)CC2)n1 [Example 75, 2-(2-fluoro-4-(2-((1R,2R)-2-(1-(3-isopropyl-1,2,4-oxadiazol-5-yl)piperidin-4-yl)cyclopropyl)ethoxy)phenyl)-N,N-dimethylacetamide]	8.1
CC(C)c1noc(N2CCC([C@@H]3C[C@H]3CCOc3ccc(CC(=O)N(C)C)c(F)c3)CC2)n1 [Example 76, 2-(2-fluoro-4-(2-((1S,2S)-2-(1-(3-isopropyl-1,2,4-oxadiazol-5-yl)piperidin-4-yl)cyclopropyl)ethoxy)phenyl)-N,N-dimethylacetamide]	6.3
CC(C)c1noc(N2CCC([C@@H]3C[C@H]3CCOc3cc(F)c(CC(=O)N(C)C)c(F)c3)CC2)n1 [Example 77, 2-(2,6-difluoro-4-(2-((1S,2S)-2-(1-(3-isopropyl-1,2,4-oxadiazol-5-yl)piperidin-4-yl)cyclopropyl)ethoxy)phenyl)-N,N-dimethylacetamide]	0.79
COCc1noc(N2CCC([C@@H]3C[C@H]3CCOc3cc(F)c(CC(=O)N(C)C)c(F)c3)CC2)n1 [Example 78, 2-(2,6-difluoro-4-(2-((1S,2S)-2-(1-(3-(methoxymethyl)-1,2,4-oxadiazol-5-yl)piperidin-4-yl)cyclopropyl)ethoxy)phenyl)-N,N-dimethylacetamide]	6.7
